Source: US9556162B2, “Compound for the treatment of hepatitis C” (Bristol-Myers Squibb Company, priority 2013, dated 2017)

Experiments:
HCV = conditions: cited from earlier work
[1] = tested on: genotype 1b (Con-1) HCV replicon; experiment: HCV replicon luciferase assay; assay type: cell-based; conditions: Hepatitis C virus, Huh-7, 72 h
Method: The cell lines used to evaluate compounds consist of a human hepatocyte derived cell line (Huh-7) that constitutively expresses a genotype 1b (Con-1) HCV replicon or a genotype 1b (Con-1) HCV replicon with an asparagine replacing the cysteine at amino acid 316, or a genotype 2a (JFH-1) replicon, containing a Renilla luciferase reporter gene. These cells were maintained in Dulbecco's modified Eagle medium (DMEM) containing 10% FBS, 100 U/mL penicillin/streptomycin and 1.0 mg/mL G418.
To evaluate compound efficacy, titrated compounds were transferred to sterile 384-well tissue culture treated plates, and the plates were seeded with HCV replicon cells (50 μL at a density of 2.4×10^3 cells/well) in DMEM containing 4% FBS (final DMSO concentration at 0.5%). After 3 days incubation at 37 C, cells were analyzed for Renilla Luciferase activity using the EnduRen substrate (Promega cat #E6485) according to the manufacturer's directions. […] The plates were incubated for at least 1 h at 37° C. then read on a Viewlux Imager (PerkinElmer) using a luminescence program. […]
To assess cytotoxicity of compounds, Cell Titer-Blue (Promega) was added to the EnduRen-containing plates and incubated for at least 4 h at 37° C. The fluorescence signal from each well was read using a Viewlux Imager. All CC50 values were calculated using the four-parameter logistic formula.

[2] = molecular target: T1, NS5B enzyme, HCV genotype 1b (Con1) (Hepatitis C virus genotype 1b, UniProt Q9WMX2); experiment: HCV NS5B RdRp enzyme assay; assay type: biochemical; conditions: 1b NS5B enzyme, 24 h preincubation, [33P]-GTP incorporation
T1 construct: Each untagged protein was expressed with an 18 amino acid C-terminal truncation to enhance the solubility; made in house; host or cells: E. coli BL21(DE3), pET21a vector
T1 sequence (Q9WMX2 2420-2992): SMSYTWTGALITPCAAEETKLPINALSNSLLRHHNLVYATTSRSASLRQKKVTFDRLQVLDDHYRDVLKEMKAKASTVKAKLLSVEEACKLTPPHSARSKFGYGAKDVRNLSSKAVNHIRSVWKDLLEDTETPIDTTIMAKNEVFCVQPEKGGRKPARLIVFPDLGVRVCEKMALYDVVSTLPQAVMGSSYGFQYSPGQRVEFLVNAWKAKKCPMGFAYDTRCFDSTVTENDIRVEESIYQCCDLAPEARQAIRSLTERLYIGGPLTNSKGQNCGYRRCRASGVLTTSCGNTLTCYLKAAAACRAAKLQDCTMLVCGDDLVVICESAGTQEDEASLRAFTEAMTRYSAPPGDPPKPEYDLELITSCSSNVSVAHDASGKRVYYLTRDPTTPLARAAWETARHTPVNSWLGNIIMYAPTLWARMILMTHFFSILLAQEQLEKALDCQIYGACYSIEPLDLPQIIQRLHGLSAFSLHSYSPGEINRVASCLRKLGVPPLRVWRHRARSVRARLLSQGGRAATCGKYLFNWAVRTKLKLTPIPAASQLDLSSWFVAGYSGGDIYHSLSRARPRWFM
Method: The cDNA encoding NS5B proteins of HCV genotype 1b (Con1), a genotype 1b variant with amino acid 316 mutated from cysteine to asparagine, and genotype 2a (JFH-1), were cloned into the pET21a expression vector. Each untagged protein was expressed with an 18 amino acid C-terminal truncation to enhance the solubility. The E. coli competent cell line BL21(DE3) was used for expression of the protein. Cultures were grown at 37° C. for ˜4 hours until the cultures reached an optical density of 2.0 at 600 nm. The cultures were cooled to 20° C. and induced with 1 mM IPTG. Fresh ampicillin was added to a final concentration of 50 μg/mL and the cells were grown overnight at 20° C.
Cell pellets (3 L) were lysed for purification to yield 15-24 mgs of purified NS5B. […]
HCV NS5B RdRp enzyme assay. […] The newly synthesized RNA product was precipitated by 10% TCA and quantified on the Packard Top Count NXT. IC50 values for compounds were determined using seven different [I]. IC50 values were calculated from the inhibition using the four-parameter logistic formula y=A+((B−A)/(1+((C/x)^D))), where A and B denote minimal and maximal % inhibition, respectively, C is the IC50, D is hill slope and x represents compound concentration.

Compound | toxicity during extended dosing of the combination regimens (HCV; patients, combined with interferon and ribavirin) | HCV RNA levels in patients (HCV; single agent: transient decrease then rebound during dosing) | EC50 [1] | IC50 [2]
CNC(=O)c1c(-c2ccc(F)cc2)oc2cc(N(CCO)S(C)(=O)=O)c(C3CC3)cc12 [HCV-796] | hepatic toxicity | reduce HCV RNA levels |  | 
CC[C@@H](C)c1cc2oc(-c3ccc(F)cc3)c(C(=O)NC)c2cc1-c1cccc(C(=O)NC(C)(C)c2ncon2)c1 (single isomer, unassigned) [Enantiomer 2] |  |  | 5.5 nM | 2.3 nM
